Columns and labels:
Cytochrome P450 3A4 = Cytochrome P450 3A4 (Homo sapiens, UniProt P08684); experiment: Inhibition of CYP3A4; type: ADME
Dipeptidyl peptidase 4 = Dipeptidyl peptidase 4 (Homo sapiens, UniProt P27487); experiment: Inhibition of DPP4 in human plasma assessed as formation of 7-amino-4-methylcoumarin from glycyl-L-proline 4-methylcoumaryl-7-amide by fluorescence assay
Cytochrome P450 1A2 = biological target: T1, Cytochrome P450 1A2 (Homo sapiens, UniProt P05177); experiment: Inhibition of CYP1A2; type: ADME
T1 sequence (P05177 whole entry): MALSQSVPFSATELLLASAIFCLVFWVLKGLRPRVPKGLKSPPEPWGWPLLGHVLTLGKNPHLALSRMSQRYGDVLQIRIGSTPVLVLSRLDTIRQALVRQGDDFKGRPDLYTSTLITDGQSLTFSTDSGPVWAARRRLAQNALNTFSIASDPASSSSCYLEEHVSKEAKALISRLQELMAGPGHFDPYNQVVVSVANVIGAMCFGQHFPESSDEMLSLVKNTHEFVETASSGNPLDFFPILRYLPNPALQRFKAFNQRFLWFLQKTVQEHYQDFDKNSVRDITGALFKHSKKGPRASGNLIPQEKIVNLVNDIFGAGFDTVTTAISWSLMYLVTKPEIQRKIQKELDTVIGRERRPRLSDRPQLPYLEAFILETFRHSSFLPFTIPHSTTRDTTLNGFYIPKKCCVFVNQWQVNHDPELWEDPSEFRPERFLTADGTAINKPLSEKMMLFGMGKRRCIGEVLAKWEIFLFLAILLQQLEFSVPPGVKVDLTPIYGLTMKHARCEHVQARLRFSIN

Cytochrome P450 2D6 = Cytochrome P450 2D6 (Homo sapiens, UniProt P10635); experiment: Inhibition of CYP2D6; type: ADME
Cytochrome P450 2D6, sequence (P10635 whole entry): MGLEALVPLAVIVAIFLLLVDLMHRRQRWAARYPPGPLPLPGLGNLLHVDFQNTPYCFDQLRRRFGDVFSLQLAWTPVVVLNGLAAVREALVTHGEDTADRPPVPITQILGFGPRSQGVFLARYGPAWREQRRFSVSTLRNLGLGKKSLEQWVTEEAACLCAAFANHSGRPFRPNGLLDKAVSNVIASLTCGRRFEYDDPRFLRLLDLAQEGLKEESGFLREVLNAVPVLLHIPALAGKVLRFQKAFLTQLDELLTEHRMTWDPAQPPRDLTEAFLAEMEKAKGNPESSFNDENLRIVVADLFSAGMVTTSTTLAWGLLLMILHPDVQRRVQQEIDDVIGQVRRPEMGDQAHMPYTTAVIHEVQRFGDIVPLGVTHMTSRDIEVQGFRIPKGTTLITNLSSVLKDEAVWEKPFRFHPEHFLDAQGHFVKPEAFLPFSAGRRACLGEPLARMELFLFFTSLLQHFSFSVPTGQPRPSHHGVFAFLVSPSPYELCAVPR

Dipeptidyl peptidase 4, sequence (P27487 whole entry): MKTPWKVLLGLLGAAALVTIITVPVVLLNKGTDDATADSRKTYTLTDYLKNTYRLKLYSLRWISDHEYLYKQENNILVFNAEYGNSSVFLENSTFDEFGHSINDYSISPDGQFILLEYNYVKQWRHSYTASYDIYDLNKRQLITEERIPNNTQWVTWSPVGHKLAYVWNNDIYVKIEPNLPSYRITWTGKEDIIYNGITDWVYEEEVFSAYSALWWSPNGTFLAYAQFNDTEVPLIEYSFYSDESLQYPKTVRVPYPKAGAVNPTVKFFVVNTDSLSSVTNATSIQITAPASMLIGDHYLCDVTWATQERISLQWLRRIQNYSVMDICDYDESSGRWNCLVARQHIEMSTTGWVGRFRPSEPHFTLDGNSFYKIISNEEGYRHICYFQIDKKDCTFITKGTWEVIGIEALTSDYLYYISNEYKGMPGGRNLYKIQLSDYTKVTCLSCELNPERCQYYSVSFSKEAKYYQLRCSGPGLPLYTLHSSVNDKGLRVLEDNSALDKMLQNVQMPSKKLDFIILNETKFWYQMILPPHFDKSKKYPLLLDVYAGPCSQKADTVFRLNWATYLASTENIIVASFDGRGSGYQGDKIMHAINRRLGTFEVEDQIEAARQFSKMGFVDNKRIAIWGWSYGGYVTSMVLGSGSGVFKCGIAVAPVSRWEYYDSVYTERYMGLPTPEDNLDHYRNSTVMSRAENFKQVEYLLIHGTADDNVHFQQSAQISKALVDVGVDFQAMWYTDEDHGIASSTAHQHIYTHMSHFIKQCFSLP
Cytochrome P450 3A4, sequence (P08684 whole entry): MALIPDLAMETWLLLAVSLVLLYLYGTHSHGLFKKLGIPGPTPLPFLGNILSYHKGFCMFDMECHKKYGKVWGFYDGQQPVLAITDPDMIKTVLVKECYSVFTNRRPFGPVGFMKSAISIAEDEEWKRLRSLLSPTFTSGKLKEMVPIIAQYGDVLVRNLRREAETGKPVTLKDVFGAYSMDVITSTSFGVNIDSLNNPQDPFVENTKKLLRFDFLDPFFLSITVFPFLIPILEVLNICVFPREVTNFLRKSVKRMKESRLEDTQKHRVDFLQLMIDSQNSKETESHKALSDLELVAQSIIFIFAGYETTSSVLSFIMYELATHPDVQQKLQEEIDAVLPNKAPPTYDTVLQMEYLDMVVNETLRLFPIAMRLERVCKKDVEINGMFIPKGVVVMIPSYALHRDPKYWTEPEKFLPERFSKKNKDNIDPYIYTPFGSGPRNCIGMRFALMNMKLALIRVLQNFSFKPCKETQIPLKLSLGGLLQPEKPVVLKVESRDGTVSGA

| Structure (SMILES) | IC50 (Cytochrome P450 3A4) [nM] | IC50 (Dipeptidyl peptidase 4) [nM] | IC50 (Cytochrome P450 1A2) [µM] | IC50 (Cytochrome P450 2D6) [µM] |
| --- | --- | --- | --- | --- |
| Cn1c(=O)c2c(cc(N3CCC[C@@H](N)C3)n2Cc2cc(F)ccc2C#N)n(C)c1=O | 1600 | 0.34 | 14.7 | 7.5 |
| CC[C@@]1(N)CCCN(c2cc3c(c(=O)n(C)c(=O)n3C)n2Cc2cc(F)ccc2C#N)C1 |  | 26 |  |  |
| CC[C@]1(N)CCCN(c2cc3c(c(=O)n(C)c(=O)n3C)n2Cc2cc(F)ccc2C#N)C1 |  | > 1000 |  |  |

From ChEMBL document CHEMBL1817578, “2-({6-[(3R)-3-amino-3-methylpiperidine-1-yl]-1,3-dimethyl-2,4-dioxo-1,2,3,4-tetrahydro-5H-pyrrolo[3,2-d]pyrimidine-5-yl}methyl)-4-fluorobenzonitrile (DSR-12727): a potent, orally active dipeptidyl peptidase IV inhibitor without mechanism-based inactivation of CYP3A” (Bioorg Med Chem, 2011)
